{
  "source": "EPA's ToxValDB 9.5 (doi:10.2903/j.efsa.2010.1833)",
  "key": {"Folsomia candida": {"tested_on": "Folsomia candida", "settings": "chronic/long-term; duration: 28 days; mortality"}, "Pleurozium sp.": {"tested_on": "Pleurozium sp.", "settings": "acute; duration: 72 hours"}, "Landoltia sp.": {"tested_on": "Landoltia sp.", "settings": "chronic/long-term; duration: 14 days; other"}, "Rattus norvegicus": {"tested_on": "Rattus norvegicus", "settings": "for LD50: acute, mortality"}, "Lepomis macrochirus": {"tested_on": "Lepomis macrochirus", "settings": "acute; duration: 96 hours; mortality"}, "Coturnix japonica": {"tested_on": "Coturnix japonica", "settings": "acute; oral; diet; mortality"}, "Aleochara bilineata": {"tested_on": "Aleochara bilineata", "settings": "chronic/long-term; duration: 77 days; reproduction"}, "Tagia sp.": {"tested_on": "Tagia sp.", "settings": "acute; duration: 14 days; mortality"}, "Canidae": {"tested_on": "Canidae", "settings": "subchronic; duration: 90 days; oral; gavage; Dog Other; body weight"}, "Mus musculus": {"tested_on": "Mus musculus", "settings": "acute, oral, mortality"}},
  "data": [
    {"smiles": "CN1CSC(=S)N(C)C1", "note": "[Dazomet]", "values": [
      {"measurement": "LEL", "setting": "Folsomia candida", "value": 485000, "unit": "g/ha"},
      {"measurement": "NOEC", "setting": "Pleurozium sp.", "value": 0.056, "unit": "mg/L"},
      {"measurement": "NOEC", "setting": "Landoltia sp.", "value": 0.306, "unit": "mg/L"},
      {"measurement": "LD50", "setting": "Rattus norvegicus; oral, F", "value": 415, "unit": "mg/kg-day"},
      {"measurement": "LD50", "setting": "Rattus norvegicus; oral, M", "value": 596, "unit": "mg/kg-day"},
      {"measurement": "NOAEL", "setting": "Rattus norvegicus; chronic, duration: 2 years, oral, diet, hematological", "value": 0.9, "unit": "mg/kg-day"},
      {"measurement": "NOAEL", "setting": "Rattus norvegicus; developmental, development", "value": 3, "unit": "mg/kg-day"},
      {"measurement": "NOAEL", "setting": "Rattus norvegicus; reproduction developmental, reproduction", "value": 18, "unit": "mg/kg-day"},
      {"measurement": "NOAEL", "setting": "Rattus norvegicus; subchronic, duration: 90 days, oral, diet, organ weight", "value": 1.5, "unit": "mg/kg-day"},
      {"measurement": "NOEL", "setting": "Anas platyrhynchos; reproductive", "value": 16.7, "unit": "mg/kg-day"},
      {"measurement": "LC50", "setting": "Anas platyrhynchos; short-term, oral, feed, mortality", "value": "> 341", "unit": "mg/kg-day"},
      {"measurement": "LC50", "setting": "Lepomis macrochirus", "value": 0.3, "unit": "mg/L"},
      {"measurement": "LC50", "setting": "Coturnix japonica", "value": "> 1220", "unit": "mg/kg-day"},
      {"measurement": "LEL", "setting": "Aleochara bilineata", "value": 485000, "unit": "g/ha"},
      {"measurement": "LC50", "setting": "Tagia sp.", "value": 6.5, "unit": "mg/kg"},
      {"measurement": "LC50", "setting": "Colinus virginianus; acute, oral, diet, mortality", "value": 197, "unit": "mg/kg-day"},
      {"measurement": "LD50", "setting": "Colinus virginianus; acute, oral, mortality", "value": "> 415", "unit": "mg/kg-day"},
      {"measurement": "NOEL", "setting": "Colinus virginianus; reproduction developmental", "value": 10.6, "unit": "mg/kg-day"}
    ]},
    {"smiles": "CN=C=S", "note": "[Methyl isothiocyanate]", "values": [
      {"measurement": "NOAEL", "setting": "Rattus norvegicus; reproduction developmental, body weight", "value": 3, "unit": "mg/kg-day"},
      {"measurement": "NOAEL", "setting": "Canidae", "value": 0.4, "unit": "mg/kg-day"},
      {"measurement": "LD50", "setting": "Mus musculus; F", "value": 100, "unit": "mg/kg-day"},
      {"measurement": "LD50", "setting": "Mus musculus; M", "value": 120, "unit": "mg/kg-day"}
    ]}
  ]
}
